The text below walks through data of patent US20220106301A1, “ACETAMIDO-PHENYLBENZAMIDE DERIVATIVES AND METHODS OF USING THE SAME” (Athenex, Inc., priority 2020, published 2022).

Structures are written as SMILES.

In this test the target is CYP3A4 (Homo sapiens, UniProt P08684). Nature of the test: Determination of CYP3A4 inhibitory activity (human liver microsome, Luciferin-IPA). As to conditions: CYP3A4 IC50 (nM), 37° C. 11 minutes. On the procedure: The standard final Compound concentrations were 37, 111, 333, 1000, and 3000 nM. 12.5 μL of the Compound dilutions were transferred to a white 96-well plate. […] 25 μL of the buffer was added to each well. The plates were incubated at 37° C. for 11 minutes. 50 μL of luciferin detection reagent (Promega V9002) was added and the plates were incubated at room temperature for 5 minutes. The plate was read with a luminometer.
Sequence of CYP3A4 (P08684 whole entry): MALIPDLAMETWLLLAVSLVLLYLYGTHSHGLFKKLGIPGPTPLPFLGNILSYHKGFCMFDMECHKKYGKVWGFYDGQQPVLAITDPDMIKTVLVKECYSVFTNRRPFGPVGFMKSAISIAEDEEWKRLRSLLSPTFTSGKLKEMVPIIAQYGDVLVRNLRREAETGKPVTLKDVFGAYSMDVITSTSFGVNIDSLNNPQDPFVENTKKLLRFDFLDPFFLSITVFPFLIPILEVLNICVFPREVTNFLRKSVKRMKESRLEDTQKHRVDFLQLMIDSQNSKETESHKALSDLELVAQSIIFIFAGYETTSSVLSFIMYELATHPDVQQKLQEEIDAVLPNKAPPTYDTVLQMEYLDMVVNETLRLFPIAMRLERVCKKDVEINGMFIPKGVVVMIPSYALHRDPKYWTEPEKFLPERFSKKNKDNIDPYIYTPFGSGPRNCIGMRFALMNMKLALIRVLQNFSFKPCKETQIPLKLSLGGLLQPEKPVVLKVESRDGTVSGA
The dose-response curve and IC50 were obtained by fitting data to nonlinear regression model using GraphPad Prism software (v6.0).
`COc1cc(NC(=O)c2cc(=O)c3ccccc3o2)c(C(=O)Nc2ccc(CCN(C)Cc3ccc(-n4ccnc4)cc3)cc2)cc1OC` [Compound 1]: the half-maximal inhibitory concentration (IC50) lay within 100 to 250 nM.

Molecule `COc1cc(NC(=O)c2cc(=O)c3ccccc3o2)c(C(=O)Nc2ccc(CCN(Cc3ccc(-n4ccnc4)cc3)Cc3ccc4c(cnn4C)c3)cc2)cc1OC` [Compound 26] gave an IC50 of 250 to 500 nM. Under `COc1cncc(CN(CCc2ccc(NC(=O)c3cc(OC)c(OC)cc3NC(=O)c3cc(=O)c4cc(C)ccc4o3)cc2)Cc2ccc3c(cnn3C)c2)c1` [Compound 52] stands 250 to 500 nM; under `COc1cc(NC(=O)c2cc(=O)c3cc(C)ccc3o2)c(C(=O)Nc2ccc(CCN(Cc3cncc(C)c3)Cc3ccc4c(cnn4C)c3)cc2)cc1OC` [Compound 77], 250 to 500 nM. `COC(=O)c1ccc(C(=O)Nc2ccc(CCN(Cc3cncc(OC)c3)Cc3ccc4c(cnn4C)c3)cc2)c(NC(=O)c2cc(=O)c3ccccc3[nH]2)c1` [Compound 79] had an IC50 of 100 to 250 nM. In the case of `COc1cc(NC(=O)c2cnc3ccccc3c2)c(C(=O)Nc2ccc(CCN(Cc3cccc(-n4ccnc4)c3)Cc3ccc4c(c3)c(C)nn4C)cc2)cc1OC` [Compound 179] it was 250 to 500 nM; in that of `COc1cc(NC(=O)c2cc(=O)c3ccccc3o2)c(C(=O)NCc2ccc(CN(Cc3ccc(-n4ccnc4)cc3)Cc3ccc4c(cnn4C)c3)cc2)cc1OC` [Compound 237], 100 to 250 nM. Under `COc1cc(NC(=O)c2cc(=O)c3ccccc3o2)c(C(=O)Nc2ccc(CCN(Cc3cncc(F)c3)Cc3ccc4c(cnn4C)c3)cc2)cc1OC` [Compound 46] stands 250 to 500 nM; under `COc1cc(NC(=O)c2cc(=O)c3ccccc3o2)c(C(=O)Nc2ccc(CCN(Cc3cccc(-n4ccnc4)c3)Cc3ccc4c(c3)nnn4C)cc2)cc1OC` [Compound 50], 100 to 250 nM; under `COc1cc(NC(=O)C2CC(=O)c3ccccc3O2)c(C(=O)Nc2ccc(CCN(Cc3cccc(-n4ccnc4)c3)Cc3cc(OC)c(OC)c(OC)c3)cc2)cc1OC` (centres unmarked) [Compound 213], under 100 nM. Under `COc1cc(NC(=O)c2cc(=O)c3ccccc3o2)c(C(=O)Nc2ccc(CCN(Cc3ccc4c(c3)c(C)nn4C)Cc3ccc4c(c3)c(C)nn4C)cc2)cc1OC` [Compound 180] stands over 1000 nM; under `COc1cc(NC(=O)c2cc(=O)c3ccccc3o2)c(C(=O)Nc2ccc(CCN(Cc3ccc(-n4cncn4)cc3)Cc3ccc4c(cnn4C)c3)cc2)cc1OC` [Compound 142], over 1000 nM. Molecule `COC(=O)c1ccc(C(=O)Nc2ccc(CCN(Cc3ccc(OC)c(OC)c3)Cc3ccc(OC)c(OC)c3)cc2)c(NC(=O)c2cc(=O)c3ccccc3o2)c1` [Compound 263] displayed an IC50 of over 1000 nM. In the case of `CCCN(CCc1ccc(NC(=O)c2cc(OC)c(OC)cc2NC(=O)c2cc(=O)c3ccccc3o2)cc1)Cc1ccc(-n2ccnc2)c(OC)c1` [Compound 91] it was 100 to 250 nM. Under `COc1cc(NC(=O)c2cc(=O)c3ccccc3o2)c(C(=O)Nc2ccc(CCN(Cc3cccnc3)Cc3ccc4cnn(C)c4c3)cc2)cc1OC` [Compound 42] stands 250 to 500 nM; under `COc1cc(NC(=O)c2cc(=O)c3ccccc3o2)c(C(=O)Nc2ccc(CCN(Cc3cccnc3)Cc3cnc4cnc(Br)cn34)cc2)cc1OC` [Compound 54], 100 to 250 nM; under `CN(CCc1ccc(NC(=O)c2ccc(C(=O)OCc3cccnc3)cc2NC(=O)c2cc(=O)c3ccccc3o2)cc1)Cc1ccc2c(cnn2C)c1` [Compound 84], over 1000 nM.

`COc1cc(NC(=O)c2cc(=O)c3ccccc3o2)c(C(=O)Nc2ccc(CCN(C)Cc3cccc(-c4cccnc4)c3)cc2)cc1OC` [Compound 7]: the half-maximal inhibitory concentration (IC50) fell in the range of 500 to 1000 nM. Under `COc1cc(NC(=O)c2cc(=O)c3ccccc3o2)c(C(=O)Nc2ccc(CCN(Cc3ccncc3)Cc3ccc4c(cnn4C)c3)cc2)cc1OC` [Compound 33] stands under 100 nM. The molecule `COc1cncc(CN(CCc2ccc(NC(=O)c3cc(OC)c(OC)cc3NC(=O)c3cc(=O)c4ccccc4o3)cc2)Cc2ccc3c(c2)nnn3C)c1` [Compound 220] had a concentration for half-maximal inhibition (IC50) of 100 to 250 nM.

As to `COc1cncc(CN(CCc2ccc(NC(=O)c3cc(OC)c(OC)cc3NC(=O)c3cc(=O)c4ccc(C)cc4o3)cc2)Cc2ccc3c(cnn3C)c2)c1` [Compound 222], the half-inhibitory concentration (IC50) was 100 to 250 nM. In the case of `COc1cncc(CN(CCc2ccc(NC(=O)c3cc(OC)c(OC)cc3NC(=O)c3cc(=O)c4cc(C)ccc4o3)cc2)Cc2ccc3c(c2)c(C)nn3C)c1` [Compound 67] it was 100 to 250 nM. In the case of `COc1cc(NC(=O)c2cnc3ccccc3c2)c(C(=O)Nc2ccc(CCN(C)Cc3ccc(-n4ccnc4)cc3)cc2)cc1OC` [Compound 2] it was 100 to 250 nM; in that of `COc1cc(NC(=O)c2cc(=O)c3ccccc3o2)c(C(=O)Nc2ccc(CCN(C)Cc3ccc(-n4ccnc4)c(OC)c3)cc2)cc1OC` [Compound 87], 100 to 250 nM. Under `COc1cc(NC(=O)c2cc(=O)c3ccccc3o2)c(C(=O)Nc2ccc(CCN(C)Cc3cc(-n4cnc(C)c4)ccc3C)cc2)cc1OC` [Compound 117] stands 250 to 500 nM; under `COc1cc(NC(=O)c2cc(=O)c3ccccc3o2)c(C(=O)Nc2ccc(CCN(Cc3ccc(-c4cccnc4)cc3)Cc3ccc4c(cnn4C)c3)cc2)cc1OC` [Compound 189], over 1000 nM. In turn, `COc1cc(NC(=O)c2cc(=O)c3ccccc3o2)c(C(=O)Nc2ccc(CCN(Cc3cncc(OCC(C)C)c3)Cc3ccc4c(cnn4C)c3)cc2)cc1OC` [Compound 239] showed a concentration for half-maximal inhibition (IC50) of over 1000 nM. Under `COc1cc(NC(=O)c2cnc3ccccc3c2)c(C(=O)Nc2ccc(CCN(Cc3cccc(-n4ccnc4)c3)Cc3ccc4c(cnn4C)c3)cc2)cc1OC` [Compound 146] stands 500 to 1000 nM; under `COc1cc(NC(=O)c2cc(=O)c3ccccc3o2)c(C(=O)Nc2ccc(CCN(C)Cc3cncn3C)cc2)cc1OC` [Compound 86], 250 to 500 nM. In the case of `COCCOc1cncc(CN(CCc2ccc(NC(=O)c3cc(OC)c(OC)cc3NC(=O)c3cc(=O)c4cc(C)ccc4o3)cc2)Cc2ccc3c(cnn3C)c2)c1` [Compound 60] it was 250 to 500 nM; in that of `CCN(CCc1ccc(NC(=O)c2cc(OC)c(OC)cc2NC(=O)c2cc(=O)c3ccccc3o2)cc1)Cc1ccc2cnn(C)c2c1` [Compound 164], over 1000 nM; in that of `COc1cc(NC(=O)c2cc(=O)c3ccccc3o2)c(C(=O)Nc2ccc(CCN(Cc3cccnc3)Cc3cccc(-c4nc(C)no4)c3)cc2)cc1OC` [Compound 203], 250 to 500 nM.

For the molecule `COc1cc(NC(=O)c2cc(=O)c3ccccc3o2)c(C(=O)Nc2ccc(CCN(Cc3cccc(-n4ccnc4)c3)CC3CC3)cc2)cc1OC` [Compound 9], the IC50 was in the range of 100 to 250 nM. In the case of `COc1cc(NC(=O)c2cc(=O)c3ccccc3o2)c(C(=O)Nc2ccc(CCN(Cc3cccc(-c4nc(C)no4)c3)Cc3cncs3)cc2)cc1OC` [Compound 202] it was 500 to 1000 nM; in that of `COc1cc(NC(=O)c2cc(=O)c3ccccc3o2)c(C(=O)Nc2ccc(CCN(Cc3cncn3C)Cc3cncn3C)cc2)cc1OC` [Compound 18], under 100 nM; in that of `COc1cc(NC(=O)c2cc(=O)c3ccccc3o2)c(C(=O)Nc2ccc(CCN(Cc3cccnc3)Cc3ccc4c(c3)nnn4C)cc2)cc1OC` [Compound 221], 250 to 500 nM. Under `CN(CCc1ccc(NC(=O)c2ccc(C(=O)O)cc2NC(=O)c2cc(=O)c3ccccc3o2)cc1)Cc1ccc2c(cnn2C)c1` [Compound 271] stands over 1000 nM; under `COc1cncc(CN(CCc2ccc(NC(=O)c3cc(OC)c(OC)cc3NC(=O)c3cc(=O)c4ccccc4o3)cc2)Cc2ccc3c(cnn3C(C)=O)c2)c1` [Compound 252], 250 to 500 nM; under `CCOc1cc(C(=O)Nc2ccc(CCN(C)Cc3cccc(-n4cnc(C)c4)c3)cc2)c(NC(=O)c2cc(=O)c3ccccc3o2)cc1OC` [Compound 110], 500 to 1000 nM. In the case of `Cn1ncc2cc(CN(CCc3ccc(NC(=O)c4ccc(C(=O)O)cc4NC(=O)c4cc(=O)c5ccccc5o4)cc3)Cc3ccc4c(cnn4C)c3)ccc21` [Compound 267] it was over 1000 nM. `COc1cc(NC(=O)c2cc(=O)c3ccccc3o2)c(C(=O)NCc2ccc(CN(Cc3cccc(-n4ccnc4)c3)Cc3ccc4c(cnn4C)c3)cc2)cc1OC` [Compound 233]: the IC50 was 100 to 250 nM. Under `COc1cc(NC(=O)c2cc(=O)c3ccccc3o2)c(C(=O)Nc2ccc(CCN3CCc4cnccc4C3)cc2)cc1OC` [Compound 83] stands under 100 nM; under `COc1cc(NC(=O)c2cc(=O)c3ccccc3o2)c(C(=O)NCc2ccc(CN(Cc3cccnc3)Cc3ccc4c(cnn4C)c3)cc2)cc1OC` [Compound 234], 100 to 250 nM; under `COc1cc(NC(=O)c2cc(=O)c3ccccc3o2)c(C(=O)Nc2ccc(CCN(Cc3ccc(-c4ccncc4)cc3)Cc3ccc4cnn(C)c4c3)cc2)cc1OC` [Compound 187], over 1000 nM. In the case of `COc1cc(NC(=O)c2cc(=O)c3cc(C)ccc3o2)c(C(=O)Nc2ccc(CCN(Cc3ccc4c(cnn4C)c3)Cc3ccc4c(c3)nnn4C)cc2)cc1OC` [Compound 251] it was over 1000 nM.

`COc1cc(NC(=O)c2cc(=O)c(O)co2)c(C(=O)Nc2ccc(CCN(C)Cc3ccc(-n4ccnc4)cc3)cc2)cc1OC` [Compound 128] showed an IC50 of 500 to 1000 nM.

In turn, `COCCOc1cncc(CN(CCc2ccc(NC(=O)c3cc(OC)c(OC)cc3NC(=O)c3cc(=O)c4ccccc4o3)cc2)Cc2ccc3c(c2)c(C)nn3C)c1` [Compound 65] gave an IC50 of 100 to 250 nM. As for `COCCOc1cncc(CN(CCc2ccc(NC(=O)c3cc(OC)c(OC)cc3NC(=O)c3cnc4ccccc4c3)cc2)Cc2ccc3c(cnn3C)c2)c1` [Compound 61], the IC50 was 250 to 500 nM. In the case of `C#Cc1ccc(CN(C)CCc2ccc(NC(=O)c3cc(OC)c(OC)cc3NC(=O)c3cc(=O)c4ccccc4o3)cc2)cc1` [Compound 115] it was over 1000 nM; in that of `COc1cc(NC(=O)c2cc(=O)c3ccccc3o2)c(C(=O)Nc2ccc(CCN(Cc3ccc4c(c3)CCO4)Cc3ccc4c(cnn4C)c3)cc2)cc1OC` [Compound 163], over 1000 nM.
